The values below come from patent US20230391796A1, “GLYCOSIDASE INHIBITORS AND USES THEREOF” (UNIVERSIDAD DE SEVILLA (US) -UNIVERSITY OF SEVILLE (US), priority 2020, published 2023).

Where a name gives a salt, the structure may show the parent alone.

For data set [1], the target named is β-N-acetylglucosaminidase (from jack bean). Briefly: Inhibition assay against commercial β-N-acetylglucosaminidase (jack bean), p-nitrophenyl N-acetyl-β-D-glucosaminide substrate. The class given is biochemical. Conditions: pH 5.5, 37° C.; average of three determinations ± s.e.m.; NI = no inhibition detected at 200 μM; read-out: Jack beans Hex. As to the method: (§1) Inhibition Assays Against Commercial β-N-acetylglucosaminidases
(§2) Inhibition constant (Ki) values were determined by spectrophotometrically measuring the residual hydrolytic activities of the glycosidases against p-nitrophenyl N-acetyl-β-D-glucosaminide. […] Each assay was performed in phosphate-citrate buffer and the reactions were initiated by addition of the enzyme to a solution of the substrate in the absence or presence of various inhibitor concentrations. The mixture was incubated for 10-30 min at 37° C. and the reaction was quenched by addition of 1 M Na2CO3. Reaction times were appropriate to obtain 10-20% conversion of the substrate in order to achieve linear rates. The absorbance of the resulting mixture was determined at 405 nm. Approximate values of Ki were determined using a fixed concentration of substrate (around the Km value for the different glycosidases) and various inhibitor concentrations. Full Ki determinations and enzyme inhibition mode were determined from the slope of Lineweaver-Burk plots and double reciprocal analysis using a Microsoft Office Excel 2007 program.

The target of data set [2] is T1, Recombinant Human Hexosaminidase A (HexA) (Homo sapiens, UniProt P06865).
T1 construct: purchased R&D Systems 6237-GH-020
T1 sequence (P06865 89-529): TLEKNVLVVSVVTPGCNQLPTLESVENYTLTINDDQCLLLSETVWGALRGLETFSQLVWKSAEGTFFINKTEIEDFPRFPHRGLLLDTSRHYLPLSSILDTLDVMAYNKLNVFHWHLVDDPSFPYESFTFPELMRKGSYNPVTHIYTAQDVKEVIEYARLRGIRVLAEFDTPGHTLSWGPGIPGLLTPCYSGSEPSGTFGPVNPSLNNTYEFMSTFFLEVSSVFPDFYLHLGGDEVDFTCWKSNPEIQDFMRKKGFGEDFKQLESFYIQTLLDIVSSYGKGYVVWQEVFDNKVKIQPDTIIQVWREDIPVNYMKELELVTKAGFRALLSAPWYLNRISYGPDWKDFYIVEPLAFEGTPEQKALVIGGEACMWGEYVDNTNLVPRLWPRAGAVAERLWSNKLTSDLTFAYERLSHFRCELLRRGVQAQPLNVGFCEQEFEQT
Briefly: Inhibition assay against rhHexA, 4-methylumbelliferone-N-acetyl-β-D-glucosaminide fluorescence. The class given is biochemical. The following applies: IC50 for lysosomal hHexA; NI = no inhibition detected at 200 μM. As to the method: Inhibition Assays Against rhHexA
Human Hexosaminidase A (HexA) enzyme, purchased from R&D Systems (cat# 6237-GH-020), were determined by measuring the fluorescent signal corresponding to the rate of hydrolytic activity against the commercially available artificial substrate, 4-Methylumbelliferone-N-acetyl-β-D-glucosaminide. HexA activity assays were performed in a buffer of 100 mM sodium citrate, 250 NaCl, pH 4.5 and 1.0 nM [HexA], then stopped after 20 minutes with a solution of 1.0 M Tris, pH 9.5 to enhance fluorescent signal. Preliminary experiments have shown that reaction rates are linear for 20 minutes after substrate addition, and that 1.0 M Tris at pH 9.5 is sufficient for stopping activity, as signal is stable after stopping. Inhibition assays were run in the presence or absence of various concentrations of inhibitors and at a fixed substrate concentration of 100 μM and 1% DMSO. First, inhibitor was serially diluted to the desired range of concentrations in 2% DMSO buffer. Next, 25 μL, of inhibitor solutions at various concentrations in 2% DMSO Buffer was added to 25 μL, of 4.0 nM enzyme and allowed to incubate at 25° C. for 5 minutes. 50 μL of 200 μM and 1% DMSO substrate was then added and allowed to react for 20 minutes. 100 μL of stop solution was added to reaction mixture, and immediately mixed and aliquoted in 45 μL triplicates to a CORNING 384 well black plate. Fluorescence signal was measured in a BioTek Neo 2 Plate reader set at excitation and emission wavelengths of 355 and 450 nm, respectively. % Activity was subsequently calculated for each inhibitor concentration against the fluorescence signal of uninhibited HexA. […]

Another data set addresses T2, hOGA (Homo sapiens, UniProt O60502).
T2 sequence (O60502 1-916): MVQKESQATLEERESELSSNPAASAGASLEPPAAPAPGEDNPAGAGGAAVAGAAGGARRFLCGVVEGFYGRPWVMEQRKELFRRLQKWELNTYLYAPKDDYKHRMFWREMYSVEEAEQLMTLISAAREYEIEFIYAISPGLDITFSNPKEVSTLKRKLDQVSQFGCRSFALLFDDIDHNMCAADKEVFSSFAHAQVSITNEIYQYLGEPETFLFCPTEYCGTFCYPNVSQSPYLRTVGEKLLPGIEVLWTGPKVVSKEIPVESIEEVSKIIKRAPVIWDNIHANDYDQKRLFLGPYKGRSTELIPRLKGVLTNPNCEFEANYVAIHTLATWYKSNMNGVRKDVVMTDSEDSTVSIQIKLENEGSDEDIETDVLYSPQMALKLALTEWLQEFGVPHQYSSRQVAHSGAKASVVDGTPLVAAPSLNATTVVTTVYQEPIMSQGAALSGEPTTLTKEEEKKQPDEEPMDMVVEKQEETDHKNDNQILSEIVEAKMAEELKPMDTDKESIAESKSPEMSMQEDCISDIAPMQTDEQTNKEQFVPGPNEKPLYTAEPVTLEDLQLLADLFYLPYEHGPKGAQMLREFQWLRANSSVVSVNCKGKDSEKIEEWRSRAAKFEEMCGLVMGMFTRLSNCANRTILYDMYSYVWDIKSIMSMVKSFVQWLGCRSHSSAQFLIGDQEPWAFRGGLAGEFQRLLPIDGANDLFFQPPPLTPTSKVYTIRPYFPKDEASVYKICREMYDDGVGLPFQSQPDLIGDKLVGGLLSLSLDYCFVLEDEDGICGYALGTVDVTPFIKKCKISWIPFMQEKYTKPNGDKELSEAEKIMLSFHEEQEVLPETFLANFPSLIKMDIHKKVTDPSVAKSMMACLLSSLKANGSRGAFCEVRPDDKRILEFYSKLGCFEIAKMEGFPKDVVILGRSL
Briefly: Inhibition assay against hOGA, resorufin N-acetyl-β-D-glucosaminide fluorescence. Format: biochemical. Conditions: 0.2 nM hOGA, 25 μM substrate, pH 7.1; Morrison Ki. As to the method:
Inhibition Assays Against hOGA
Km=25 μM was measured with these conditions. Inhibition assays were run at 0.2 nM [hOGA] in the same buffer, in the presence or absence of various concentrations of inhibitors and at a fixed substrate concentration of 25 μM and 1% DMSO. First, inhibitor was serially diluted to the desired range of concentrations in 2% DMSO buffer. Next, 50 μL of inhibitor solutions at various concentrations in 2% DMSO Buffer was added to 50 μL of 0.8 nM enzyme and allowed to incubate at 25° C. for 5 minutes. 100 uL of 50 μM and 1% DMSO substrate was then added and reaction mixture was immediately mixed and aliquoted in 45 μL triplicates to a CORNING 384 well black plate. Fluorescence signal was measured continuously for 20 minutes at 37° C. in a BioTek Neo 2 Plate reader set at excitation and emission wavelengths of 572 and 610 nm, respectively. Max reaction rates for all inhibitor concentrations were calculated within Gen5 BioTek reader software. % Activity was subsequently calculated for each inhibitor concentration against the max reaction rate of uninhibited hOGA. GraphPad Prism 2016 was used to approximate the Morrison Ki values for each inhibitor.

For data set [3], the target named is β-N-acetylglucosaminidase (from bovine kidney). Nature of the data set: Inhibition assay against commercial β-N-acetylglucosaminidase (bovine kidney), p-nitrophenyl N-acetyl-β-D-glucosaminide substrate. Conditions: pH 5.5, 37° C.; average of three determinations ± s.e.m.; NI = no inhibition detected at 200 μM; read-out: Bovine kidney Hex. The class given is biochemical. As for the experimental part:
as §1, §2

In data set [4] the target is β-N-acetylglucosaminidase (from human placenta). Nature of the data set: Inhibition assay against commercial β-N-acetylglucosaminidase (human placenta), p-nitrophenyl N-acetyl-β-D-glucosaminide substrate. The class given is biochemical. The following applies: pH 5.5, 37° C.; average of three determinations ± s.e.m.; read-out: Human placenta Hex. As to the method: as §1, §2

Data set [5] is described as follows: In vivo pharmacokinetics, plasma and brain concentrations. The following applies: 3 mg/kg single dose. Also noted: species or system C57BL/6 mice. As to the method: Mean plasma concentration (ng/mL) of compound 4 in C57BL/6 mice after 3 mg/kg i.v. administration.
Mean brain concentration (ng/mL) of 4 in C57BL/6 mice after 3 mg/kg i.v. administration
Assay for Determination of the in vivo Pharmacokinetics.
The pharmacokinetic profiles of the compounds to be tested were evaluated in vivo in C57BL/6 mice (n=14) following a 3 mg/kg […] dose.

Broadly, the IC50 is the concentration that inhibits the measured activity by half.

`CC(=O)N[C@H]1CN2/C(=N/Cc3ccccc3)SC[C@@H]2[C@@H](O)[C@@H]1O` [Compound 4, 2-Acetamido-5-N,6-S-(N′-benzyliminomethylidene)-1,2-dideoxy-6-thionojirimycin Hydrochloride]: the Ki in data set [1] worked out at 750 ± 40 nM; on hOGA it was 2.99 nM; in data set [3] it was 460 ± 30 nM; in data set [4] it was 420 ± 30 nM. For the same compound, the IC50 in data set [2] was found to be 560 nM. Moreover, in data set [5] (homogenized brain, initial value), the “brain concentration, start of the decrease (FIG. 2)” value was 26 ng/g. Besides, the “plasma concentration, start of the decrease (FIG. 1)” value in data set [5] (plasma, initial value) is 1100 ng/mL. Besides, the concentration at 24 h in data set [5] (C57BL/6, mouse, intravenous, homogenized brain, 24 h, read-out: brain concentration after 24 h (FIG. 2)) came out at 7.5 ng/g. In addition, the concentration at 12 h in data set [5] (C57BL/6, mouse, intravenous, plasma, 12 h, read-out: plasma concentration after 12 h (FIG. 1)) amounted to 0.78 ng/mL.
